Read-outs that look alike come from different tables or passages of the source.
What was measured:
S-180 sc. sarcoma [1] = assay: Tumor inhibiting effect on solid tumors: S-180 sc. sarcoma; type: in vivo, mouse
Description: (§1) Our tests were performed on various transplantable mouse and rat tumors. The following tumor strains were applied:
Mouse: SC-180 sc. sarcoma (solid)
(§2) The tests were always performed on animals of both sexes. At the beginning of the tests the average body weight of mice was 20 to 22 g, whereas that of rats 150 to 180 g. The animals were kept in plastic cages and fed with a standard laboratory animal feed (LATI, Godollo, Hungary). The animals received water ad libitum.
(§3) Solid tumors were transplanted by a subcutaneous implantation of tumor chips. Ascites type tumors were transplanted with 10^7 cells received from the ascites, whereas leukaemia type tumors were transplanted with spleen suspension. The treatment of the animals was started 24 hours after transplantation, with the only exception of Harding-Passey melanoma, when treatment was started on the 4th day after transplantation.
(§4) *Performed on groups of 8 animals

Yoshida sc. sarcoma = assay: Comparison of the ED50 values on Yoshida sc. sarcoma of rats (transplanted solid tumor); type: in vivo, rat; settings: for ED50: Rattus norvegicus, Yoshida sc. sarcoma of rats; for Relative activity: calculated by comparing the ED50 values
Description: as §1
Rat: Yoshida sc. sarcoma
as §2, §3

[2] = system: peripheral blood count (granulocytes, lymphocytes); assay: Effect on peripheral blood count of rats (haematopoiesis); settings: reference substances; in words
S-180 sc. sarcoma [3] = settings: 200 mg/kg, 8 × i.p.; cited from earlier work
[4] = system: Walker sc. carcino-sarcoma; settings: 100 mg/kg, 6 × i.p.; cited from earlier work
Harding-Passey melanoma = assay: Tumor inhibiting effect on solid tumors: Harding-Passey melanoma; type: in vivo, mouse; settings: treatment from 4th day after transplantation
Description: as §1
Harding-Passey melanoma
as §2, §3, §4

CFLP and BDF1 mice [5] = settings: same animals, Nemeth et al. 1972, cited from earlier work
NK/Ly lymphoma [6] = settings: 125 mg/kg, 6 × i.p.; cited from earlier work
[7] = system: transplantable mouse and rat tumors; assay: Cytostatic effect / growth inhibition on transplantable mouse and rat tumors (overall statements); type: in vivo; settings: in words
Description: as §1, §2, §3

Ehrlich asc. carcinoma = assay: Tumor inhibiting effect on ascites type tumors: Ehrlich ascites carcinoma; type: in vivo, mouse
Description: as §1, §2, §3
Healing=tumor-free survival of 90 days after transplantation

[8] = system: Walker sc. carcino-sarcoma; assay: Tumor inhibiting effect on solid tumors: Walker sc. sarcoma; type: in vivo, rat; settings: 10 mg/kg
Description: as §1
Walker sc. carcino-sarcoma
as §2, §3, §4

CFLP and BDF1 mice [9] = assay: Acute toxicity (LD50) on CFLP and BDF1 mice; settings: in words
Description: (§5) The tests were performed on groups consisting of 10 mice (5 males and 5 females), and the animals were kept under observation for 3 weeks.

[10] = Acute toxicity (LD50) on CFLP and BDF1 mice; settings: mouse, in vivo
Description: as §5

NK/Ly lymphoma [11] = assay: Tumor inhibiting effect on ascites type tumors: NK/Ly lymphoma; type: in vivo, mouse; settings: 30 mg/kg, 4 × i.p.
Description: as §1, §2, §3

1,6-dimesyl-1,6-dideoxy-D-mannitol [reference compound]
Inhibition (S-180 sc. sarcoma [1]; 300 mg/kg, 6 × i.p.): 31
Inhibition (toxicity reported in this column) (S-180 sc. sarcoma [1]; 500 mg/kg, 6 × i.p.): toxic

CS(=O)(=O)OC[C@@H](O)[C@@H](O)[C@H](O)[C@H](O)COS(C)(=O)=O [1,6-Dimesyl-D-mannitol (Mannogranol), 1,6-dimesyl-D-mannitol]
ED50 (Yoshida sc. sarcoma; ip): 500 mg/kg
ED50 (Yoshida sc. sarcoma; po): 600 mg/kg

O[C@@H]([C@H](O)[C@H](O)CBr)[C@H](O)CBr [1,6-dibromo-1,6-dideoxy-D-mannitol]
effect on haematopoiesis (formation of myeloid leukocytes) [2]: rather strong and selective action on the formation of myeloid leukocytes
ED50 (Yoshida sc. sarcoma; ip): 490 mg/kg
ED50 (Yoshida sc. sarcoma; po): 170 mg/kg
Relative activity (Yoshida sc. sarcoma; i.p.): 0.04
Relative activity (Yoshida sc. sarcoma; p.o.): 0.41

O[C@H]([C@H](O)[C@@H](O)CBr)[C@H](O)CBr [1,6-dibromo-1,6-dideoxy-dulcitol]
effect on haematopoiesis (formation of myeloid leukocytes) [2]: rather strong and selective action on the formation of myeloid leukocytes
Inhibition (S-180 sc. sarcoma [3]): 57
Inhibition [4]: 95
Inhibition (Harding-Passey melanoma; 200 mg/kg, 13 × i.p.): 67
LD50 value (CFLP and BDF1 mice [5]; i.p.): 900 mg/kg
LD50 value (CFLP and BDF1 mice [5]; p.o.): 1500 mg/kg
ED50 (Yoshida sc. sarcoma; ip): 50 mg/kg
Relative activity (Yoshida sc. sarcoma; i.p.): 0.4
Prol. of life span (NK/Ly lymphoma [6]): 90%

CO[C@@H]([C@H](OC)[C@H](O)COS(C)(=O)=O)[C@H](O)COS(C)(=O)=O [compound of formula (I), 1,6-dimesyl-3,4-dimethyl-D-mannitol]
cytostatic effect [7]: strong cytostatic effect
cytostatic effect compared with Mannogranol, Myelobromol and Elobromol [7]: even more effective
cytostatic effect ([7]; listed as 1,6-dimesyl-3,4-dimethyl-D-mannitol): extremely potent cytostatic agent
inhibition of the growth of solid tumors ([7]; solid tumors, even in very low dosages compared to the toxic one): significantly inhibits the growth of solid tumors
Inhibition (Harding-Passey melanoma; 30 mg/kg, 10 × p.o.): 31
Inhibition (Harding-Passey melanoma; 100 mg/kg, 10 × p.o.): 52
Prol. of life span (Ehrlich asc. carcinoma; 100 mg/kg, 4 × i.p.): 99.6%
effect on Ehrlich ascites tumor (Ehrlich asc. carcinoma; in words): healing effect
Inhibition (S-180 sc. sarcoma [1]; 100 mg/kg, 4 × p.o.): 50
Inhibition (S-180 sc. sarcoma [1]; 200 mg/kg, 6 × p.o.): 70
Inhibition ([8]; 5 × i.p.): 90
Inhibition ([8]; 5 × p.o.): 97
ED50 (Yoshida sc. sarcoma; ip): 20 mg/kg
ED50 (Yoshida sc. sarcoma; po): 70 mg/kg
toxicity (CFLP and BDF1 mice [9]): low toxicity
oral resorption (CFLP and BDF1 mice [9]; inferred from i.p. vs oral LD50): excellent oral resorption
LD50 at 504 h ([10]; ip): 1000 mg/kg
LD50 at 504 h ([10]; po): 1100 mg/kg
Prol. of life span (NK/Ly lymphoma [11]): 101%

Reference: US4235803A (priority 1978, dated 1980)
